These results are taken from ChEMBL document CHEMBL4706550, “Design, synthesis and biological activities of piperidine-spirooxadiazole derivatives as α7 nicotinic receptor antagonists” (Eur J Med Chem, 2020).

SMILES strings stand for the structures. The source made the active and inactive calls. The calls are words filed in the database; no cut-off is given here.

Test [1] concerns the target T1, Neuronal acetylcholine receptor subunit alpha-7 (Homo sapiens, UniProt P36544). Put plainly: Antagonist activity at human alpha7 nAChR expressed in Xenopus laevis oocytes assessed as inhibition of Ach-induced current at 30 uM measured at holding potential of -90 mV by two electrode voltage-clamp assay relative to control. To be noted: Oocyte. The test is classed as cell-based. (In general: Two-electrode voltage clamp is typically applied to oocytes expressing channels or transporters.)

For test [2], the target named is T1, Neuronal acetylcholine receptor subunit alpha-7. Put plainly: Antagonist activity at human alpha7 nAChR expressed in Xenopus laevis oocytes assessed as inhibition of Ach-induced current at 100 uM measured at holding potential of -90 mV by two electrode voltage-clamp assay relative to control. To be noted: Oocyte. The test is classed as cell-based.
For test [3] the target is unchanged. As to the kind of experiment: Antagonist activity at human alpha7 nAChR expressed in Xenopus laevis oocytes assessed as inhibition of Ach-induced current measured at holding potential of -90 mV by two electrode voltage-clamp assay. Type of test: cell-based, Oocyte.
Test [4] deals with T2, Neuronal acetylcholine receptor; alpha3/beta4 (Rattus norvegicus) (UniProt P04757+P12392). As to the kind of experiment: Antagonist activity at rat alpha3beta4 nAChR expressed in Xenopus laevis oocytes assessed as effect on nAChR current measured at holding potential of -90 mV by two electrode voltage-clamp assay. The test is classed as cell-based. Particulars: Oocyte, dose 10.0 µM.

The target of test [5] is T2, Neuronal acetylcholine receptor; alpha3/beta4 (Rattus norvegicus). Put plainly: Antagonist activity at rat alpha3beta4 nAChR expressed in Xenopus laevis oocytes assessed as inhibition of Ach-induced current at 10 uM measured at holding potential of -90 mV by two electrode voltage-clamp assay relative to control. The test is classed as cell-based. Particulars: Oocyte.

Test [6] addresses Neuronal acetylcholine receptor; alpha4/beta2 (Rattus norvegicus, UniProt P09483+P12390). Put plainly: Antagonist activity at rat alpha4beta2 nAChR expressed in Xenopus laevis oocytes assessed as inhibition of Ach-induced current measured at holding potential of -90 mV by two electrode voltage-clamp assay. Type of test: cell-based, Oocyte.
Test [7] concerns the target T3, Neuronal acetylcholine receptor; alpha4/beta2 (Rattus norvegicus) (UniProt P09483+P12390). As to the kind of experiment: Antagonist activity at rat alpha4beta2 nAChR expressed in Xenopus laevis oocytes assessed as inhibition of Ach-induced current at 10 uM measured at holding potential of -90 mV by two electrode voltage-clamp assay relative to control. The test is classed as cell-based. Particulars: Oocyte.

Test [8] concerns the target T3, Neuronal acetylcholine receptor; alpha4/beta2 (Rattus norvegicus). As to the kind of experiment: Antagonist activity at rat alpha4beta2 nAChR expressed in Xenopus laevis oocytes assessed as effect on nAChR current at 10 uM measured at holding potential of -90 mV by two electrode voltage-clamp assay. Type of test: cell-based. To be noted: Oocyte.
The nature of test [9]: Selectivity index, ratio of IC50 for rat alpha4beta2 nAChR expressed in Xenopus laevis oocytes to IC50 for human alpha7 nAChR expressed in Xenopus laevis oocytes. The test is classed as cell-based.

T1 sequence (P36544 whole entry): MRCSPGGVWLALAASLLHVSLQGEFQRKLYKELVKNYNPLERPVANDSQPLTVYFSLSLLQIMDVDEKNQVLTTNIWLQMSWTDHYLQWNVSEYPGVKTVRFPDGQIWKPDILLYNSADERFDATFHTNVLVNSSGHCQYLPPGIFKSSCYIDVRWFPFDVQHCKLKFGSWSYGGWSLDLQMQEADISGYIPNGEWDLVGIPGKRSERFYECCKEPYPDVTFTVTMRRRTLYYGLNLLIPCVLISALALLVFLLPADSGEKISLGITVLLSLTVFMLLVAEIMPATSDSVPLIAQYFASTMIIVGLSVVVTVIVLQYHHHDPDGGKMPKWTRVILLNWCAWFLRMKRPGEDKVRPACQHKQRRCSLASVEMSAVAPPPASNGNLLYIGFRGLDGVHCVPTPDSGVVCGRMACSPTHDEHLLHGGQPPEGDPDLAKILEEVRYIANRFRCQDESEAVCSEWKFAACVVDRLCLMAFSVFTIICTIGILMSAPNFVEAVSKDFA
Chain of Neuronal acetylcholine receptor; alpha4/beta2 (P09483 whole entry): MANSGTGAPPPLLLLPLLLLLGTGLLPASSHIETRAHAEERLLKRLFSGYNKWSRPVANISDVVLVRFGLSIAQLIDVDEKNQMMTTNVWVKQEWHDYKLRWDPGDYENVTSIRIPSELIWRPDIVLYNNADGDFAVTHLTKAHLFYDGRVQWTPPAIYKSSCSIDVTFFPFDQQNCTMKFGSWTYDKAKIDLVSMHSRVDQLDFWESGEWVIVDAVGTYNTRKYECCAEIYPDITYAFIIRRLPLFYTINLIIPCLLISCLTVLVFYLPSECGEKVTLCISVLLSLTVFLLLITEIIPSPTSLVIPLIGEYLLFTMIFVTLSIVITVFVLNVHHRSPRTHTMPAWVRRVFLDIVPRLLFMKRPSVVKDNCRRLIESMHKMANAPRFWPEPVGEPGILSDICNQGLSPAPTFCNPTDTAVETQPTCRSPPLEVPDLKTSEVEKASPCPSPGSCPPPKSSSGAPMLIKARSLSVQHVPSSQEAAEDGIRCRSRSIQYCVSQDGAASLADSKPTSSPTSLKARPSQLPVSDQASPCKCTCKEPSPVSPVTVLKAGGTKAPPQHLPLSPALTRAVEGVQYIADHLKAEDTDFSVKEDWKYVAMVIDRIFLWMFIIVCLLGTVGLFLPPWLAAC
Chain of Neuronal acetylcholine receptor; alpha4/beta2 (P12390 whole entry): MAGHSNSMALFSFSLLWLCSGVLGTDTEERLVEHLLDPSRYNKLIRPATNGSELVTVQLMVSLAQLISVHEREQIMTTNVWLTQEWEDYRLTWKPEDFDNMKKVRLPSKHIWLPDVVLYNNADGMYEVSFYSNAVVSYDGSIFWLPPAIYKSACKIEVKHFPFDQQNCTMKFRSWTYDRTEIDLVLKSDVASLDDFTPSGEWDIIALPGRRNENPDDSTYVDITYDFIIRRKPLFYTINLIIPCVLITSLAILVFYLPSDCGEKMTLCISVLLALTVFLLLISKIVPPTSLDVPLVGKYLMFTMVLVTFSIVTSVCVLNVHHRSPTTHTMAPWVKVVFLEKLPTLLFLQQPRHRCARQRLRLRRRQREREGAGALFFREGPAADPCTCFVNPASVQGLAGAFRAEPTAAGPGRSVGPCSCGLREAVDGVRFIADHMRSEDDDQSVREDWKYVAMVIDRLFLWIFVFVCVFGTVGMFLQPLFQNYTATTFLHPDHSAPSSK

In the case of `c1ccc(CN2CCC3(CC2)NC(c2ccc(-c4ccncc4)cc2)=NO3)cc1`, the inhibition entry in test [1] is “inactive”. Further, in test [2] (filed as antagonist), the inhibition came to 75.2%.
In the case of `COc1cc(-c2ccc(C3=NOC4(CCN(C)CC4)N3)cc2)ccn1`, in [3], the IC50 is 3.3 µM. The inhibition in test [1] (filed as antagonist) was 86.1%; in test [2] (filed as antagonist), 93.4%.
As for `Fc1ccc(C2=NOC3(CCN(Cc4ccccc4)CC3)N2)cc1`, the inhibition entry in [1] is “inactive”. Moreover, in [2] (filed as antagonist), the inhibition came to 78.3%.
For `Brc1ccc(C2=NOC3(CCN(Cc4ccccc4)CC3)N2)cc1`, in test [3], the IC50 came to 6 µM. In addition, the inhibition was 90.8% in test [1] (filed as antagonist) and 91.5% in test [2] (filed as antagonist).
On to `c1ccc(C2=NOC3(CCN(Cc4ccccn4)CC3)N2)cc1`, for which, in [1], the inhibition result was “inactive”. The inhibition in [2] (filed as antagonist) is 70.2%.
In the case of `CN1CCC2(CC1)NC(c1nccs1)=NO2`, the inhibition in test [1] (filed as antagonist) was 69.7%; in test [2] (filed as antagonist), 87.4%.
In the case of `c1ccc2cc(C3=NOC4(CCN(Cc5ccncc5)CC4)N3)ncc2c1`, the inhibition result in test [1] was “inactive”. For the same molecule, the inhibition in [2] (filed as antagonist) stood at 58.2%.
On to `CN1CCC2(CC1)NC(c1ccc(Br)nc1)=NO2`, for which the inhibition in test [1] (filed as antagonist) amounted to 44.1%; in test [2] (filed as antagonist) it was 83.4%.
For `Fc1ccc(CN2CCC3(CC2)NC(C2CC2)=NO3)cc1` the same measures were 52.8% and 83.9%.
Turning to `Nc1cccc(-c2ccc(C3=NOC4(CCN(Cc5ccccc5)CC4)N3)cc2)c1`, the inhibition in test [1] (filed as antagonist) was determined as 60.1%; in test [2] (filed as antagonist), 93.5%.
As for `CN(C)c1cccc(-c2ccc(C3=NOC4(CCN(Cc5ccccc5)CC4)N3)cc2)c1`, the inhibition turned out to be 39.5% in [1] and 81.1% in test [2] (filed as antagonist).
Turning to `c1ccc(CN2CCC3(CC2)NC(c2cc4ccccc4cn2)=NO3)nc1`, the results for the inhibition in [1] and in test [2] (filed as antagonist) were 37.9% and 80%, respectively.
Take `COc1cc(-c2ccc(C3=NOC4(CCN(Cc5ccccc5)CC4)N3)cc2)ccn1`: the results for the inhibition in test [1] (filed as antagonist) and in test [2] (filed as antagonist) were 54.7% and 89.9%, respectively.
Turning to `c1ccc(CN2CCC3(CC2)NC(c2ccc(-c4cccnc4)cc2)=NO3)cc1`, the inhibition in test [1] (filed as antagonist) was 65%; in [2] (filed as antagonist), 81.1%.
On to `CCOC(=O)N1CCC2(CC1)NC(c1ccccc1)=NO2`, for which the inhibition entry in test [1] is “inactive”. Moreover, the inhibition in [2] (filed as antagonist) came to 75.1%.
On to `c1ccc(CN2CCC3(CC2)NC(C2CC2)=NO3)cc1`, for which the inhibition amounted to 52.2% in test [1] (filed as antagonist) and 83.9% in [2] (filed as antagonist).
As for `COc1cc(OC)cc(-c2ccc(C3=NOC4(CCN(Cc5ccccc5)CC4)N3)cc2)c1`, in test [1], the inhibition result was “inactive”. Moreover, the inhibition in test [2] (filed as antagonist) turned out to be 73%.
On the same counts, the results for `Clc1ccc(-c2ccc(C3=NOC4(CCN(Cc5ccccc5)CC4)N3)cc2)cc1` are “inactive” and 52.8%.
Regarding `CN1CCC2(CC1)NC(c1ccc(Br)cc1)=NO2`, the result in test [4] and in test [8] was inactive. Moreover, the inhibition in test [5] worked out at 20%; in test [7], 24%; in test [1] (filed as antagonist) it was 91.8%; in [2] (filed as antagonist) it was 97.4%. Besides, the values for the IC50 in test [6] and in test [3] were 32 µM and 5.4 µM, respectively. For the same molecule, in [9], the Ratio IC50 amounted to 6.
As for `Cc1ccc(-c2ccc(C3=NOC4(CCN(Cc5ccccc5)CC4)N3)cc2)cc1`, the inhibition result in test [1] was “inactive”. Also, the inhibition in test [2] worked out at 34.9%.
Turning to `CCOC(=O)N1CCC2(CC1)NC(c1ccc(Br)cc1)=NO2`, the inhibition entry in test [1] was “inactive”. In addition, the inhibition in test [2] (filed as antagonist) was determined as 58.1%.
For `c1ccc(CN2CCC3(CC2)NC(c2ccccn2)=NO3)cc1` the same measures were “inactive” and 68.7%.
On the same counts, the results for `Cc1ccccc1-c1ccc(C2=NOC3(CCN(Cc4ccccc4)CC3)N2)cc1` are “inactive” and 72%.
Regarding `FC(F)(F)c1ccc(-c2ccc(C3=NOC4(CCN(Cc5ccccc5)CC4)N3)cc2)cc1`, the inhibition result in test [1] is “inactive”. The inhibition in test [2] was 36.5%.
Take `COc1ccc(C2=NOC3(CCN(Cc4ccccc4)CC3)N2)cc1`: the inhibition result in [1] is “inactive”. Besides, the inhibition in test [2] (filed as antagonist) came to 79.6%.
Turning to `c1ccc(CN2CCC3(CC2)NC(c2ccc(-c4ccccc4)cc2)=NO3)cc1`, the inhibition result in test [1] is “inactive”. The inhibition in test [2] (filed as antagonist) came to 71.4%.
On the same counts, the results for `Fc1ccc(-c2ccc(C3=NOC4(CCN(Cc5ccccc5)CC4)N3)cc2)cc1` are “inactive” and 42.4%.
Take `Brc1ccc(C2=NOC3(CCN(Cc4ccccc4)CC3)N2)cn1`: the inhibition was 63.7% in test [1] (filed as antagonist) and 90.3% in test [2] (filed as antagonist).
With `c1ccc(CN2CCC3(CC2)NC(c2nccs2)=NO3)cc1`, the figures for the inhibition in [1] (filed as antagonist) and in [2] (filed as antagonist) were 65.1% and 94.5%, respectively.
On the same counts, the results for `Nc1cccc(-c2ccc(C3=NOC4(CCN(Cc5ccccc5)CC4)N3)cn2)c1` are 61.8% and 87.2%.
In the case of `Cc1cccc(-c2ccc(C3=NOC4(CCN(Cc5ccccc5)CC4)N3)cc2)c1`, the results for the inhibition in test [1] and in test [2] (filed as antagonist) were 30% and 80.1%, respectively.
With `c1ccc(CN2CCC3(CC2)NC(c2ccc(-c4cccs4)cc2)=NO3)cc1`, in test [1], the inhibition entry was “inactive”. In test [2] (filed as antagonist), the inhibition amounted to 71.1%.
Turning to `c1ccc(CN2CCC3(CC2)NC(c2nccs2)=NO3)nc1`, the inhibition in test [1] turned out to be 39.3%; in [2] (filed as antagonist), 80%.
On to `Oc1cccc(-c2ccc(C3=NOC4(CCN(Cc5ccccc5)CC4)N3)cc2)c1`, for which the inhibition in test [1] (filed as antagonist) is 59%; in test [2] (filed as antagonist), 80.4%.
As to `c1ccc(CN2CCC3(CC2)NC(c2cccs2)=NO3)cc1`, the inhibition entry in test [1] was “inactive”. The inhibition in [2] (filed as antagonist) was determined as 74.9%.
As to `CC(C)c1cccc(-c2ccc(C3=NOC4(CCN(Cc5ccccc5)CC4)N3)cc2)c1`, the inhibition entry in test [1] was “inactive”. In addition, in [2], the inhibition is 26.2%.
As for `COc1cccc(-c2ccc(C3=NOC4(CCN(Cc5ccccc5)CC4)N3)cn2)c1`, the inhibition entry in test [1] is “inactive”. In addition, the inhibition in [2] (filed as antagonist) came to 58.2%.
As for `c1ccc(CN2CCC3(CC2)NC(c2ccccc2)=NO3)cc1`, the IC50 in test [3] turned out to be 13.7 µM. For the same molecule, the inhibition in test [1] (filed as antagonist) came to 70.4%; in [2] (filed as antagonist), 98.2%.
With `c1ccc(CN2CCC3(CC2)NC(c2cc4ccccc4cn2)=NO3)cc1`, the inhibition in test [1] (filed as antagonist) was 76.6%; in [2] (filed as antagonist), 91.1%.
Take `Cc1cccc(C2=NOC3(CCN(Cc4ccccc4)CC3)N2)c1`: the inhibition entry in test [1] was “inactive”. In addition, the inhibition in test [2] (filed as antagonist) worked out at 75.4%.
Turning to `COc1ccc(C2=NOC3(CCN(Cc4ccccc4)CC3)N2)c(OC)c1`, in [1], the inhibition entry was “inactive”. In addition, in test [2] (filed as antagonist), the inhibition amounted to 79.1%.
On the same counts, the results for `CN1CCC2(CC1)NC(c1ccc(-c3cccc(N)c3)cc1)=NO2` are “inactive” and 78.2%.
For `c1ccc(CN2CCC3(CC2)NC(c2n[nH]c4ccccc24)=NO3)cc1` the same measures were “inactive” and 69.8%.
For `FC(F)(F)c1cccc(-c2ccc(C3=NOC4(CCN(Cc5ccccc5)CC4)N3)cc2)c1` the same measures were “inactive” and 67%.
For `COc1cccc(-c2ccc(C3=NOC4(CCN(C)CC4)N3)cc2)c1`, the figures for the inhibition in test [1] (filed as antagonist) and in test [2] (filed as antagonist) were 81.3% and 93.2%, respectively.
For the molecule `c1cc(CN2CCC3(CC2)NC(c2nccs2)=NO3)ccn1`, in test [1], the inhibition result was “inactive”. Besides, the inhibition in test [2] was found to be 18.8%.
As to `Fc1cccc(C2=NOC3(CCN(Cc4ccccc4)CC3)N2)c1`, the inhibition in test [1] (filed as antagonist) was determined as 65.9%; in test [2] (filed as antagonist), 83.1%.
With `CC(C)(C)OC(=O)N1CCC2(CC1)NC(c1ccccc1)=NO2`, the inhibition entry in [1] was “inactive”. For the same molecule, the inhibition in [2] (filed as antagonist) amounted to 73.5%.
Take `CN1CCC2(CC1)NC(c1ccccc1)=NO2`: the concentration for half-maximal inhibition (IC50) in test [3] was 4.4 µM. Besides, the inhibition was 90.4% in test [1] (filed as antagonist) and 96.7% in test [2] (filed as antagonist).
`COc1cccc(-c2ccc(C3=NOC4(CCN(Cc5ccccc5)CC4)N3)cc2)c1`: the inhibition in [1] (filed as antagonist) stood at 76.9%; in test [2] (filed as antagonist), 95.6%.
For `Clc1ccc(C2=NOC3(CCN(Cc4ccccc4)CC3)N2)cc1` the same measures were 77.4% and 90.7%.
In the case of `COc1ccc(-c2ccc(C3=NOC4(CCN(Cc5ccccc5)CC4)N3)cc2)cc1`, the inhibition result in [1] is “inactive”. Also, the inhibition in [2] (filed as antagonist) was determined as 40.5%.

As a reminder, the inhibition is the relative decrease from the control value, in per cent. Broadly, the IC50 is the concentration needed to halve the response being measured.
